Activity calls are given as the source filed them. No cut-off for these calls is given here. Positions of bridges follow the written chain, without caps; N, C: chain ends. Non-standard residues stand in square brackets, D forms with d. Residues, ends and D or L forms follow the SMILES beside them. Chains are numbered I, II in the order given. *: point of attachment. 2Nal = N[C@@H](Cc1ccc2ccccc2c1)C(=O)O; Val(3-OH) = CC(C)(O)[C@H](N)C(=O)O; Tle = CC(C)(C)[C@H](N)C(=O)O; X1 = O=C(c1ccnc(Cl)c1Cl)*; AEEA = NCCOCCOCC(=O)O
Experiments:
Macrophage [1] = assay: Inhibition of calcineurin-NFATc3 interaction in mouse lung macrophages assessed as reduction in LPS-induced TNFalpha production at 0.1 to 10 uM pre-incubated 4 hrs before LPS stimulation for 8 hrs by ELISA; assay type: tissue-based; conditions: DISRUPTING AGENT, dose microM 0.1-10, time 12.0 hrs
Macrophage [2] = assay: Inhibition of calcineurin-NFATc3 interaction in mouse lung macrophages assessed as reduction in LPS-induced IL6 production at 1 uM pre-incubated 4 hrs before LPS stimulation for 8 hrs by ELISA relative to 10 uM CsA; assay type: tissue-based; conditions: time 12.0 hrs
[3] = Drug distribution in BALB/c mouse monocytes at […], sc using compound labelled with cyanine-5 measured after 24 hrs by flow cytometry; assay type: ADME, organism-based, Monocyte; conditions: in vivo, dose 2.4 mg/kg
[4] = Stability in simulated gastric fluid at 5 uM incubated for 2 hrs by LC/MS/MS analysis
[5] = Drug distribution in BALB/c mouse muscle at […], sc using compound labelled with cyanine-5 measured after 24 hrs by fluorescence based assay; assay type: ADME, organism-based, Muscle tissue; conditions: in vivo, dose 2.4 mg/kg
Mus musculus [6] = assay: Anti-inflammatory activity in BALB/c mouse model of LPS-induced ALI assessed as reduction in LPS-induced TNFalpha in BALF at 0.3 to 3 mg/kg dosed via intranasal instillation pre-treated 2 hrs before LPS stimulation for 6 hrs; assay type: functional
[7] = Drug distribution in BALB/c mouse pancreas at 0.6 mg/kg, iv using compound labelled with cyanine-5 measured after 24 hrs by fluorescence based assay; assay type: ADME, organism-based; conditions: read-out: Drug uptake
Mus musculus [8] = assay: Anti-inflammatory activity in BALB/c mouse model of LPS-induced ALI assessed as reduction in LPS-induced BALF protein levels at 5 mg/kg, iv pre-treated 4 hrs before LPS stimulation for 16 hrs; assay type: functional, organism-based; conditions: time 20.0 hrs
[9] = Drug distribution in BALB/c mouse kidney at 0.6 mg/kg, iv using compound labelled with cyanine-5 measured after 24 hrs by fluorescence based assay; assay type: ADME, organism-based; conditions: in vivo
[10] = Drug distribution in BALB/c mouse kidney at […], sc using compound labelled with cyanine-5 measured after 24 hrs by fluorescence based assay; assay type: ADME, organism-based; conditions: in vivo, dose 2.4 mg/kg
[11] = Drug concentration in BALB/c mouse muscle at 5 mg/kg, iv after 8 hrs by LC-MS/MS analysis; assay type: ADME, organism-based, Muscle tissue; conditions: in vivo
[12] = Drug distribution in BALB/c mouse Non-T and B lymphocytes at […], sc using compound labelled with cyanine-5 measured after 24 hrs by flow cytometry; assay type: ADME, organism-based, Lymphocyte; conditions: in vivo, dose 2.4 mg/kg
Mus musculus [13] = assay: Anti-inflammatory activity in BALB/c mouse model of LPS-induced ALI assessed as reduction in LPS-induced TNFalpha in BALF at 5 mg/kg, iv pre-treated 4 hrs before LPS stimulation for 16 hrs; assay type: functional, organism-based; conditions: time 20.0 hrs
[14] = Drug distribution in BALB/c mouse pancreas at […], sc using compound labelled with cyanine-5 measured after 24 hrs by fluorescence based assay; assay type: ADME, organism-based; conditions: dose 2.4 mg/kg, read-out: Drug uptake
[15] = Clearance in C57BL/6 mouse assessed as clearance time at 5 mg/kg using TMR-labeled compound instilled into both nostrils by flow cytometry; assay type: ADME, organism-based; conditions: in vivo, inhaled_or_intranasal
[16] = Drug distribution in BALB/c mouse liver at […], sc using compound labelled with cyanine-5 measured after 24 hrs by fluorescence based assay; assay type: ADME, organism-based; conditions: in vivo, dose 2.4 mg/kg
[17] = Drug metabolism in BALB/c mouse spleen at 5 mg/kg, iv after 8 hrs by LC-MS/MS analysis; assay type: ADME, organism-based; conditions: in vivo
[18] = Drug distribution in BALB/c mouse heart at […], sc using compound labelled with cyanine-5 measured after 24 hrs by fluorescence based assay; assay type: ADME, organism-based; conditions: dose 2.4 mg/kg, read-out: Drug uptake
[19] = Drug metabolism in BALB/c mouse plasma at 5 mg/kg, iv after 8 hrs by LC-MS/MS analysis; assay type: ADME, organism-based; conditions: in vivo
[20] = Stability in mouse hepatocytes at 2 uM incubated up to 90 mins by LC/MS/MS analysis; assay type: ADME, cell-based, Hepatocyte
Mus musculus [21] = assay: Anti-inflammatory activity in BALB/c mouse model of LPS-induced ALI assessed as reduction in LPS-induced lung wet-to-dry ratios at 5 mg/kg, iv pre-treated 4 hrs before LPS stimulation for 16 hrs; assay type: functional, organism-based; conditions: time 20.0 hrs
[22] = Drug distribution in BALB/c mouse muscle at […], ip using compound labelled with cyanine-5 measured after 24 hrs by fluorescence based assay; assay type: ADME, organism-based, Muscle tissue; conditions: in vivo, dose 2.4 mg/kg
[23] = Drug distribution in BALB/c mouse pancreas at […], ip using compound labelled with cyanine-5 measured after 24 hrs by fluorescence based assay; assay type: ADME, organism-based; conditions: dose 2.4 mg/kg, read-out: Drug uptake
[24] = Drug distribution in BALB/c mouse spleen at 0.6 mg/kg, iv using compound labelled with cyanine-5 measured after 24 hrs by fluorescence based assay; assay type: ADME, organism-based; conditions: in vivo
[25] = Drug distribution in BALB/c mouse Non-T and B lymphocytes at 0.6 mg/kg, iv using compound labelled with cyanine-5 measured after 24 hrs by flow cytometry; assay type: ADME, organism-based, Lymphocyte; conditions: in vivo
[26] = Drug distribution in BALB/c mouse neutrophils at 0.6 mg/kg, iv using compound labelled with cyanine-5 measured after 24 hrs by flow cytometry; assay type: ADME, organism-based, Neutrophil; conditions: in vivo
Mus musculus [27] = assay: Anti-inflammatory activity in BALB/c mouse model of LPS-induced ALI assessed as reduction in LPS-induced BALF protein levels at 0.3 to 3 mg/kg dosed via intranasal instillation pre-treated 2 hrs before LPS stimulation for 6 hrs; assay type: functional
[28] = Stability in human HCT-116 cells spheroids assessed as compound degradation at 5 uM incubated for 24 hrs by MALDI-TOF-TOF mass spectrometry; assay type: ADME, cell-based; conditions: hct-116, 24 h
[29] = Drug distribution in BALB/c mouse lung at 0.6 mg/kg, iv using compound labelled with cyanine-5 measured after 24 hrs by fluorescence based assay; assay type: ADME, organism-based; conditions: read-out: Drug uptake
[30] = Drug distribution in BALB/c mouse lymph nodes at […], sc using compound labelled with cyanine-5 measured after 24 hrs by fluorescence based assay; assay type: ADME, organism-based, Lymph node; conditions: dose 2.4 mg/kg, read-out: Drug uptake
Mus musculus [31] = assay: Anti-inflammatory activity in BALB/c mouse model of LPS-induced ALI assessed as reduction in LPS-induced IL6 in BALF at 5 mg/kg, iv pre-treated 4 hrs before LPS stimulation for 16 hrs; assay type: functional, organism-based; conditions: time 20.0 hrs
[32] = Drug distribution in BALB/c mouse liver at 0.6 mg/kg, iv using compound labelled with cyanine-5 measured after 24 hrs by fluorescence based assay; assay type: ADME, organism-based; conditions: in vivo
Mus musculus [33] = assay: Anti-inflammatory activity in BALB/c mouse model of LPS-induced ALI assessed as effect on LPS-induced TNFalpha in kidney at 5 mg/kg, iv pre-treated 4 hrs before LPS stimulation for 16 hrs; assay type: functional, organism-based; conditions: time 20.0 hrs
[34] = Toxicity in mouse lung macrophages cells assessed as reduction in cell viability up to 25 uM incubated for 72 hrs by MTT assay; assay type: tissue-based; conditions: macrophage
[35] = Drug distribution in BALB/c mouse heart at 0.6 mg/kg, iv using compound labelled with cyanine-5 measured after 24 hrs by fluorescence based assay; assay type: ADME, organism-based; conditions: read-out: Drug uptake
[36] = Stability in 25% human serum assessed as compound degradation at 5 uM at 37 degC incubated for 24 hrs by HPLC analysis; assay type: ADME, cell-free; conditions: serum, 24 h, 5 µM
[37] = Drug distribution in BALB/c mouse lymph nodes at 0.6 mg/kg, iv using compound labelled with cyanine-5 measured after 24 hrs by fluorescence based assay; assay type: ADME, organism-based, Lymph node; conditions: read-out: Drug uptake
[38] = dose mg/kg 0.3-3, time 8 hrs, read-out: MED

Drug uptake [3]: Active
Drug uptake [5]: Not Active
concentration at 24 h [7]: > 50 nM
Drug uptake [9]: Active
Drug uptake [10]: Active
Drug uptake [11]: Not Active
Drug uptake [12]: Active
concentration at 24 h [14]: > 50 nM
CL [15]: 16 h
Drug uptake [16]: Active
Drug metabolism [17]: Metabolite_Detected
concentration at 24 h [18]: > 50 nM
Drug metabolism [19]: Metabolite_Detected
Stabilty [20]: Stable
Drug uptake [22]: Not Active
concentration at 24 h [23]: > 50 nM
Drug uptake [24]: Active
Drug uptake [25]: Active
Drug uptake [26]: Active
Stabilty [28]: Stable
concentration at 24 h [29]: > 50 nM
concentration at 24 h [30]: > 50 nM
Drug uptake [32]: Active
concentration at 24 h [35]: > 50 nM
Stabilty [36]: Stable
concentration at 24 h [37]: > 50 nM
SMILES: CC[C@H](C)[C@H](NC(=O)[C@@H](NC(=O)c1ccnc(Cl)c1Cl)C(C)(C)C)C(=O)N[C@H](C(=O)N[C@H](C(=O)N[C@H](C(=O)N[C@@H](CCC(N)=O)C(=O)N[C@@H](Cc1c[nH]cn1)C(=O)N[C@H](CC(C)C)C(=O)N[C@@H](CO)C(=O)NCCOCCOCC(=O)N[C@@H](CCCCNC(=O)CC[C@@H]1NC(=O)[C@@H](CCCNC(=N)N)NC(=O)[C@H](CCCNC(=N)N)NC(=O)[C@@H](CCCNC(=N)N)NC(=O)[C@H](CCCNC(=N)N)NC(=O)[C@H](Cc2ccc3ccccc3c2)NC(=O)[C@@H](Cc2ccccc2)NC1=O)C(N)=O)[C@@H](C)O)[C@@H](C)CC)C(C)(C)O (I: X1-[Tle]I[Val(3-OH)]ITQH[dL]S[AEEA]K-NH2 / II: cyclo([2Nal]R[dR]R[dR]E[dF]); amide I:11-II:6)
inhibition (Macrophage [1]): Dose-dependent effect
fold change (FC) (Macrophage [2]): 10
Stability [4]: Stable
Activity (Mus musculus [6]; dose mg/kg 0.3-3, time 8.0 hrs): Dose-dependent effect
minimal effective dose (Mus musculus [6]; [38]): 1 mg/kg
Activity (Mus musculus [8]): Active
Activity (Mus musculus [13]): Active
Activity (Mus musculus [21]): Active
Activity (Mus musculus [27]; dose mg/kg 0.3-3, time 8.0 hrs): Dose-dependent effect
minimal effective dose (Mus musculus [27]; [38]): 1 mg/kg
Activity (Mus musculus [31]): Active
Activity (Mus musculus [33]): inactive
Activity [34]: Non-Toxic
